Experimental data published in ChEMBL document CHEMBL1773004, “1-[(1-methyl-1H-imidazol-2-yl)methyl]-4-phenylpiperidines as mGluR2 positive allosteric modulators for the treatment of psychosis” (J Med Chem, 2011).
The source made the active and inactive calls. The calls are words filed in the database; no cut-off is given here.

Tests used:
[1] = target: D(2) dopamine receptor (Rattus norvegicus, UniProt P61169); test: Displacement of [3H]spiperone from dopamine D2 receptor in rat corpus striatum by beta plate scintillation counting; type: tissue-based
[2] = target: Metabotropic glutamate receptor 2 (Rattus norvegicus, UniProt P31421); test: Positive allosteric modulation of rat mGluR2 expressed in HEK293 cells co-expressing Galpha15 G protein assessed as increase in glutamate-induced intracellular calcium release by FLIPR assay; type: functional, cell-based
[3] = Permeability from apical to basolateral side of MDR1 transfected MDCK cells at 1 uM; type: ADME, cell-based, Canis lupus familiaris; conditions: dog, read-out: permeability
[4] = target: T1, 5-hydroxytryptamine receptor 1A (Homo sapiens) (UniProt P08908); test: Binding affinity to 5HT1A receptor at 3.16 uM
T1 sequence (whole entry): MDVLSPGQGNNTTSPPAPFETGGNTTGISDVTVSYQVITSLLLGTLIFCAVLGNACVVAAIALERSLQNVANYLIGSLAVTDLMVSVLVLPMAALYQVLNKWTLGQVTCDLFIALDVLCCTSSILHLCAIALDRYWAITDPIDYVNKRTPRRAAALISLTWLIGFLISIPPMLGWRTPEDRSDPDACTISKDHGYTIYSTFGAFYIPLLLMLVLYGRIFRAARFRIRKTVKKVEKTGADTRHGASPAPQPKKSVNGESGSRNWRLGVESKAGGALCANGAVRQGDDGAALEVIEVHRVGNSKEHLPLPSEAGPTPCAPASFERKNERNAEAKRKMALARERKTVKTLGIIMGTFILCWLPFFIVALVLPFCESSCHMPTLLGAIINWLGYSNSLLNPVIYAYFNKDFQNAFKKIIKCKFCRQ

[5] = target: Metabotropic glutamate receptor 5 (Homo sapiens) (UniProt P41594); test: Antagonist activity at mGlu5 receptor at up to 10 uM; type: functional
[6] = target: Metabotropic glutamate receptor 1 (Homo sapiens) (UniProt Q13255); test: Antagonist activity at mGlu1 receptor at up to 10 uM; type: functional
[7] = tested on: MDCK; test: Efflux ratio of permeability from […] of MDR1 transfected MDCK cells at 1 uM; type: ADME, cell-based, Canis lupus familiaris; conditions: dog
[8] = target: 5-hydroxytryptamine receptor 2A (Homo sapiens) (UniProt P28223); test: Binding affinity to 5HT2A receptor at 3.16 uM
[9] = target: T2, Muscarinic acetylcholine receptor M1 (Homo sapiens) (UniProt P11229); test: Binding affinity to muscarinic M1 receptor at 3.16 uM
T2 sequence (whole entry): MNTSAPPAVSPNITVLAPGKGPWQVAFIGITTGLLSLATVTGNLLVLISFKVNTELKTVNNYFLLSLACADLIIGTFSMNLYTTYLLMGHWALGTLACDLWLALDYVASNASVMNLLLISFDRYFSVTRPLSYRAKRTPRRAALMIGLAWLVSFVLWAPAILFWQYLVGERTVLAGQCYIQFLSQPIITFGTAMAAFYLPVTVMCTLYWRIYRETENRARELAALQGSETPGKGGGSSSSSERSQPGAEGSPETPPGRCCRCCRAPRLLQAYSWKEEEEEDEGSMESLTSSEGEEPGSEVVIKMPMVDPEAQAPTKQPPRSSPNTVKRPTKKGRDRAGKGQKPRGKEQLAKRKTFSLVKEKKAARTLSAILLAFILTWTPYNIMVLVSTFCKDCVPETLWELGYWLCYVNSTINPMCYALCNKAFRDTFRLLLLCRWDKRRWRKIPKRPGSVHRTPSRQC

[10] = target: Metabotropic glutamate receptor 5 (Homo sapiens) (UniProt P41594); test: Agonist activity at mGlu5 receptor at up to 10 uM; type: functional
[11] = target: D(2) dopamine receptor (Homo sapiens, UniProt P14416); test: Antagonist activity at human dopamine D2 receptor expressed in CHO cells assessed as inhibition of quinpirole-induced effect; type: functional, cell-based
[12] = target: hERG (KCNH2) (Homo sapiens, UniProt Q12809); test: Binding affinity to human ERG at 3.16 uM
[13] = target: T3, Alpha-2A adrenergic receptor (Homo sapiens) (UniProt P08913); test: Binding affinity to adrenergic alpha2A receptor at 3.16 uM
T3 sequence (whole entry): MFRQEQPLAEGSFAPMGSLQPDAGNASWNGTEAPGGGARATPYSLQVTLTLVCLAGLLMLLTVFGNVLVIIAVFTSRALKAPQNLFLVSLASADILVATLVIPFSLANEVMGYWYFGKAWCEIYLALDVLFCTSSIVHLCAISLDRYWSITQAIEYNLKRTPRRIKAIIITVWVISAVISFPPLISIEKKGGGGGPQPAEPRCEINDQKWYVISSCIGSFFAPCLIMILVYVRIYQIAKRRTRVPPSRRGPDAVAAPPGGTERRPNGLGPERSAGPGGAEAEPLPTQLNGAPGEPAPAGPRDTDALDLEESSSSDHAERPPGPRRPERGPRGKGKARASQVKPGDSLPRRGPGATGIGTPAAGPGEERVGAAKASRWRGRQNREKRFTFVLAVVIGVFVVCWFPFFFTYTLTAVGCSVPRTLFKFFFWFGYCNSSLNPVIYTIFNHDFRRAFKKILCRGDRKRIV

[14] = target: Metabotropic glutamate receptor 5 (Homo sapiens) (UniProt P41594); test: Positive allosteric modulation of mGlu5 receptor at up to 10 uM
[15] = target: Metabotropic glutamate receptor 1 (Homo sapiens) (UniProt Q13255); test: Agonist activity at mGlu1 receptor at up to 10 uM; type: functional
[16] = target: 5-hydroxytryptamine receptor 2B (Homo sapiens) (UniProt P41595); test: Binding affinity to 5HT2B receptor at 3.16 uM
[17] = target: Histamine H1 receptor (Homo sapiens) (UniProt P35367); test: Binding affinity to histamine H1 receptor at 3.16 uM
[18] = target: Metabotropic glutamate receptor 2 (Homo sapiens, UniProt Q14416); test: Positive allosteric modulation of human mGluR2 expressed in HEK293 cells co-expressing Galpha15 G protein assessed as increase in glutamate-induced intracellular calcium release by FLIPR assay; type: functional, cell-based
[19] = Cmax in rat brain at 5 mg/kg, po; type: ADME, organism-based; parameters: dose 5 mg/kg, route oral
[20] = Ratio of drug level in brain to plasma in rat at 3.2 mg/kg, sc after 60 mins; type: ADME, organism-based; parameters: dose 3.2 mg/kg, route subcutaneous
[21] = tested on: HEK293; test: Selectivity ratio of Ki for dopamine D2 receptor in rat corpus striatum to EC50 for rat mGluR2 expressed in HEK293 cells; type: cell-based
[22] = Ratio of drug level in brain to plasma in mouse at 10 mg/kg, sc after 60 mins; type: ADME, organism-based; parameters: dose 10 mg/kg, route subcutaneous
[23] = tested on: Brain; test: Fraction unbound in rat brain by LC-MS/MS assay; type: ADME, tissue-based
[24] = Plasma clearance in rat at 1 mg/kg, iv; type: ADME, organism-based; parameters: dose 1 mg/kg, route intravenous
[25] = Cmax in rat brain at 10 mg/kg, po; type: ADME, organism-based; parameters: dose 10 mg/kg, route oral
[26] = Oral bioavailability in rat at 10 mg/kg; type: ADME, organism-based; conditions: in vivo

Metabotropic glutamate receptor 1 (Homo sapiens), sequence (Q13255 19-1194 limits assumed): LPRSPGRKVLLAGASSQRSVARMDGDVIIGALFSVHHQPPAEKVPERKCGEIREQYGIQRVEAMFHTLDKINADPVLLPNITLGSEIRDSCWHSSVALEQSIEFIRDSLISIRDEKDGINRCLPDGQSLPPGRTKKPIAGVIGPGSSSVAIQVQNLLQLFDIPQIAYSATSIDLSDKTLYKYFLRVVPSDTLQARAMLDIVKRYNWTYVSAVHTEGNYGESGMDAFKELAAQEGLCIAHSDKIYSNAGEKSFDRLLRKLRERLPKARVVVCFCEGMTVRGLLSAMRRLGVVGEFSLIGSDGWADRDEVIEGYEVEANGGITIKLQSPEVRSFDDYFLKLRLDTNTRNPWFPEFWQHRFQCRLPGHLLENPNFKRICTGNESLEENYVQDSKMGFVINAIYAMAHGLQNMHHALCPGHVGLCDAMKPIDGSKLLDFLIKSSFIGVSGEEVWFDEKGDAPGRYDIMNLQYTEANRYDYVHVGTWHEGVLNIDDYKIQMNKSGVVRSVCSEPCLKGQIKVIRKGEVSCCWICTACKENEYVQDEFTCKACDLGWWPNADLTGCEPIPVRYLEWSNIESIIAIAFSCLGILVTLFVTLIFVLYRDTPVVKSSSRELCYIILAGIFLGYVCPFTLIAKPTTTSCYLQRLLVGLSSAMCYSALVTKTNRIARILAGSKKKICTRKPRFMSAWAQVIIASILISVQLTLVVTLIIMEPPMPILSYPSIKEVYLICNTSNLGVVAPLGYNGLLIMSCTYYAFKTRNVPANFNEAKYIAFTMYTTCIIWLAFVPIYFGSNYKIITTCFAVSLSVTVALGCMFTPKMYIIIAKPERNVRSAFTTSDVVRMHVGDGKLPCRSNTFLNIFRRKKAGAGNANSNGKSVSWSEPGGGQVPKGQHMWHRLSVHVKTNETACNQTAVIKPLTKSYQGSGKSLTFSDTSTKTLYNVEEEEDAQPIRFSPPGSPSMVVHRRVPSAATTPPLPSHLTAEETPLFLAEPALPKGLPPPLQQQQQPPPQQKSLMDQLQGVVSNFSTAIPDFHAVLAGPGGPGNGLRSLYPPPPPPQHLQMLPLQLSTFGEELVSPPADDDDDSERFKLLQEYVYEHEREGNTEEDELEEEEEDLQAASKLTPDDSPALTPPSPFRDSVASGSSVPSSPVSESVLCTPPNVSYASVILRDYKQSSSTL
D(2) dopamine receptor (Rattus norvegicus, UniProt P61169), sequence (P61169 whole entry): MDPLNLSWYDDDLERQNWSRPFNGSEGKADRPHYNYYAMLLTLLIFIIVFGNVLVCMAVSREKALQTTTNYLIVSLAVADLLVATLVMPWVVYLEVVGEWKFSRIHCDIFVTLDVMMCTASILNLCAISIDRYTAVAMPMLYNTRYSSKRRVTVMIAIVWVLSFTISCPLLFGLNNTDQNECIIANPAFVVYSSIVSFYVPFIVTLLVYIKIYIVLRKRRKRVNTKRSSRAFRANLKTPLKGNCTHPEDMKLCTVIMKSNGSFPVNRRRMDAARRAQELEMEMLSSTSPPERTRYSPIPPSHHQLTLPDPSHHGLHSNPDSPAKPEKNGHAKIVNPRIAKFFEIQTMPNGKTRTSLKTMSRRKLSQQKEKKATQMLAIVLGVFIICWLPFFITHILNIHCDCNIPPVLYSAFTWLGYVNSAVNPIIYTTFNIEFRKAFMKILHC
Metabotropic glutamate receptor 5 (Homo sapiens), sequence (P41594 21-1212 limits assumed): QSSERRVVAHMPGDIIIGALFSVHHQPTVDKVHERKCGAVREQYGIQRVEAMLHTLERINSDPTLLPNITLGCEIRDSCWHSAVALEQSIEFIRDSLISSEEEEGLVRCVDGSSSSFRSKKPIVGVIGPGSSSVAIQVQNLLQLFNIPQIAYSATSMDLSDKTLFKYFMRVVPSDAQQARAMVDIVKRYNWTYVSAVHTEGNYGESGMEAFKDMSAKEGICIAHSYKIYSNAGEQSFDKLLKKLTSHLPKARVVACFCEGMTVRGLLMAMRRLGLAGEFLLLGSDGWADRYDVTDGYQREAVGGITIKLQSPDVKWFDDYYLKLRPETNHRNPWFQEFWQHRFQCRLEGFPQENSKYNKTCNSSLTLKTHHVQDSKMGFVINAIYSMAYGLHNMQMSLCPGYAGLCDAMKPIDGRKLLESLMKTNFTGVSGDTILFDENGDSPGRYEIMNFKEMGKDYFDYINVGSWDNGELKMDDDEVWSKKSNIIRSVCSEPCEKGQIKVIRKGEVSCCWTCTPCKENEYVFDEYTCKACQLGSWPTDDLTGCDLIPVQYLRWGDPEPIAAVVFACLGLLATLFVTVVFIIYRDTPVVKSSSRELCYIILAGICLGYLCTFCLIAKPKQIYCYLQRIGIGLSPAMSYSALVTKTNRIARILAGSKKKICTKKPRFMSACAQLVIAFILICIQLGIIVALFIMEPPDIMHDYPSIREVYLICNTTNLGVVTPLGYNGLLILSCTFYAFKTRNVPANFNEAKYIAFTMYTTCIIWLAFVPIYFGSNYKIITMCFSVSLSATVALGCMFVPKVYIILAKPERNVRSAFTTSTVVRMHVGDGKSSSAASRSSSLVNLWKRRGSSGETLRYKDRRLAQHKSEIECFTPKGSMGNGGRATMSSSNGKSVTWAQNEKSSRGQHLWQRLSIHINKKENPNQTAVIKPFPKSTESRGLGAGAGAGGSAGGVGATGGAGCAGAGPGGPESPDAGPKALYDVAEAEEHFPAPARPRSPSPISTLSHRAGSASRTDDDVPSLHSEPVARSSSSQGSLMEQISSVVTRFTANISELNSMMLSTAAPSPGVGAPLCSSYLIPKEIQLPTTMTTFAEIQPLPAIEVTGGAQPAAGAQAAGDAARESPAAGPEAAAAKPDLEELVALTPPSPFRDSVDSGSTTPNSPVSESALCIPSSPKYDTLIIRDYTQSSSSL
Metabotropic glutamate receptor 2 (Rattus norvegicus, UniProt P31421), sequence (P31421 whole entry): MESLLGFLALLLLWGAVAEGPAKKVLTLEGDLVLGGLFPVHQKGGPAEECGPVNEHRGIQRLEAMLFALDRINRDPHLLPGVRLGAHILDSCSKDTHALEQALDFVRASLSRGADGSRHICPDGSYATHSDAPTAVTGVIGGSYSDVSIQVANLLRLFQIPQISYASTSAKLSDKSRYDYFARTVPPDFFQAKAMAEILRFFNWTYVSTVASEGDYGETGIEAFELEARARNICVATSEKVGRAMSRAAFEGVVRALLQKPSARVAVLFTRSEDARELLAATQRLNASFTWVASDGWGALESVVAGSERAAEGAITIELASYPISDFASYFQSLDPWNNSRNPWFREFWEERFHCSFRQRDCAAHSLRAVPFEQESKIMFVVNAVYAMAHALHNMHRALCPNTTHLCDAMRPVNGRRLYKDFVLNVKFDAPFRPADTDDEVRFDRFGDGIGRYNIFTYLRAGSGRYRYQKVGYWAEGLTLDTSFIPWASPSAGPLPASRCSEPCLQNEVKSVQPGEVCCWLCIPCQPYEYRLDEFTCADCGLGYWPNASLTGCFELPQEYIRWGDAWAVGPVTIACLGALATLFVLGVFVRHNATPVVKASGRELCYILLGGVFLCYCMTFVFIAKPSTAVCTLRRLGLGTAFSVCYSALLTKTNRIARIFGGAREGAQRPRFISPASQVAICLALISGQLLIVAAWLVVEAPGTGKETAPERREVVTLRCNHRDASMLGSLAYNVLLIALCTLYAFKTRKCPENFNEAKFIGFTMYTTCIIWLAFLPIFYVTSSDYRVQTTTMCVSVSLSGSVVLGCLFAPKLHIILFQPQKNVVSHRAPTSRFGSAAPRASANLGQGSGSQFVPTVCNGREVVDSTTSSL
Metabotropic glutamate receptor 2 (Homo sapiens, UniProt Q14416), sequence (Q14416 whole entry): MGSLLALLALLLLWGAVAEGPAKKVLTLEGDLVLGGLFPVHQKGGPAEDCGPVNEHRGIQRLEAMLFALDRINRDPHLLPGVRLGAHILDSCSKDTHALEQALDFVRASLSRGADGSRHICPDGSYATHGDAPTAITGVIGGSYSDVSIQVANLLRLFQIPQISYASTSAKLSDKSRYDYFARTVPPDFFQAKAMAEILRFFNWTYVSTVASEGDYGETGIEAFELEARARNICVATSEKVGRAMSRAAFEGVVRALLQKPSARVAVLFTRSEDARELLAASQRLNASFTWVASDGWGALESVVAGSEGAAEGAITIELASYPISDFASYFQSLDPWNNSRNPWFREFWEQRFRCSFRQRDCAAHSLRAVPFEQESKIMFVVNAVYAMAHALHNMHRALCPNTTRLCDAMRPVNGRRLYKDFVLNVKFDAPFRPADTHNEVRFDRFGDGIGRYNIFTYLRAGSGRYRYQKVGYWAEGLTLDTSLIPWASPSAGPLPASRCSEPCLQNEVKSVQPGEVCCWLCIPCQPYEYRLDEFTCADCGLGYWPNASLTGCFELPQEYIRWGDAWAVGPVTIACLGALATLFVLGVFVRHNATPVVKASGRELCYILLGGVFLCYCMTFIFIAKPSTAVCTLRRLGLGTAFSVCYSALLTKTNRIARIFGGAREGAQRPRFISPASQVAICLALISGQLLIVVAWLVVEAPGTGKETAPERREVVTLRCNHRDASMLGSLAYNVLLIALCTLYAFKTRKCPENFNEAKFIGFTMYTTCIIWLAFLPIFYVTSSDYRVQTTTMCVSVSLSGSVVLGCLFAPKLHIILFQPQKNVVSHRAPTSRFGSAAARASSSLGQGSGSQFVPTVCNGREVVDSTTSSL
5-hydroxytryptamine receptor 2A (Homo sapiens), sequence (P28223 whole entry): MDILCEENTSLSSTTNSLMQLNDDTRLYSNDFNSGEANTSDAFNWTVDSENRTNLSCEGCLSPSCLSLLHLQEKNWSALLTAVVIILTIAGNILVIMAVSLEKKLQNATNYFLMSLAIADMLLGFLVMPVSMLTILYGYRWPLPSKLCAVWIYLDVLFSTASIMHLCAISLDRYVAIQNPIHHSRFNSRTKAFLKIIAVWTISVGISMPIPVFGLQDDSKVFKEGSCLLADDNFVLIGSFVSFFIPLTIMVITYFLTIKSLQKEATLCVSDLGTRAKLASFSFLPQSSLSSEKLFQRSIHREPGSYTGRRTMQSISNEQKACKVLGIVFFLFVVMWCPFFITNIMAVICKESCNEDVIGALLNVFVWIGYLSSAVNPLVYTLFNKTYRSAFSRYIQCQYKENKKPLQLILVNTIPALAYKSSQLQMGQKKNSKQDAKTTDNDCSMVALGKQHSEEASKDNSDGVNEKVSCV

COc1cc(C(F)(F)F)ccc1C1CCN(Cc2nc3ncccc3n2C)CC1
Ki [1]: 2430 nM
EC50 [2]: 13 nM

COc1ccccc1C1CCN(Cc2nc3ccccc3n2C)CC1
Papp A→B at 1 µM [3]: 25.8 ×10⁻⁶ cm/s
inhibition [4]: < 50%
Activity [5]: inactive
Activity [6]: inactive
Ratio [7]: 1.28
inhibition [8]: < 50%
inhibition [9]: < 50%
Activity [10]: inactive
EC50 [11]: 951 nM
Ki [1]: 426 nM
inhibition at 3.16 µM [12]: < 50%
inhibition [13]: < 50%
EC50 [2]: 87 nM
Activity [14]: inactive
Activity [15]: inactive
inhibition [16]: < 50%
inhibition [17]: < 50%

Cn1c(CN2[C@@H]3CC[C@H]2CC(c2ccc(C(F)(F)F)cc2)C3)nc2ncccc21 (some centres undefined)
Ki [1]: 355 nM
EC50 [2]: 184 nM

Cn1c(CN2CCC(c3ccc(F)cc3)CC2)nc2ccccc21
Ki [1]: 24 nM
EC50 [2]: 159 nM

Cc1cc(C2CCN(Cc3nc4ccccc4n3C)CC2)nc(N2CCCC2)n1
EC50 [2]: 4790 nM

Cn1c(CN2CCC(c3ccc(C(F)(F)F)cc3)CC2)nc2ccncc21
EC50 [2]: 196 nM

Cn1c(CN2CCC(c3ccc(C(F)(F)F)cc3)CC2)nc2ccccc21
Ki [1]: 561 nM
EC50 [2]: 78 nM

C[C@H]1CN(Cc2nc3ncccc3n2C)CC[C@H]1c1ccc(C(F)(F)F)cc1
Ki [1]: > 2800 nM
EC50 [2]: 33 nM

Cn1c(CN2CCC(c3ccc(C(F)(F)F)cc3)CC2)nc2cnccc21
Ki [1]: 671 nM
EC50 [2]: 168 nM

C[C@@H]1CN(Cc2nc3ncccc3n2C)CC[C@@H]1c1ccc(C(F)(F)F)cc1
Ki [1]: > 2800 nM
EC50 [2]: > 1990 nM

Cn1c(CN2CCC(c3ccccc3)CC2)nc2ccccc21
EC50 [2]: 212 nM

Cn1c(CN2CCC(c3ccccc3Cl)CC2)nc2ccccc21
EC50 [2]: 144 nM

COc1cc(C(F)(F)F)ccc1[C@@H]1CCN(Cc2nc3ncccc3n2C)C[C@@H]1C
Papp A→B at 1 µM [3]: 19 ×10⁻⁶ cm/s
EC50 [18]: 76 nM
Cmax [19]: 1.58 µM
Kp at 1 h [20]: 8
Activity [5]: inactive
Activity [6]: inactive
Ratio [7]: 1.5
Ratio [21]: > 239
Activity [10]: inactive
Ki [1]: > 5260 nM
Kp at 1 h [22]: 1.7
EC50 [2]: 22 nM
Fu [23]: 0.6%
Activity [14]: inactive
Activity [15]: inactive

Cn1c(CN2CCC(c3cccc(F)c3)CC2)nc2ccccc21
EC50 [2]: 3310 nM

C[C@@H]1C[C@H](c2ccc(C(F)(F)F)cc2)CCN1Cc1nc2ncccc2n1C
Ki [1]: 589 nM
EC50 [2]: 454 nM

Cn1c(CN2CCC(c3ccc(C(F)(F)F)cc3)CC2)nc2ncccc21
Papp A→B at 1 µM [3]: 30 ×10⁻⁶ cm/s
EC50 [18]: 43 nM
Kp at 1 h [20]: 5
clearance [24]: 5.4 mL/min/kg
Cmax [25]: 5.21 µM
Ratio [7]: 1.4
Ratio [21]: 8
Ki [1]: 404 nM
EC50 [2]: 48 nM
bioavailability [26]: 100%

Cn1c(CN2CCC(c3ccccc3F)CC2)nc2ccccc21
EC50 [2]: 22 nM
